Test results as given in patent US20170275287A1, “NOVEL N2, N4, N7, 6-TETRASUBSTITUTED PTERIDINE-2,4,7-TRIAMINE AND 2, 4, 6, 7-TETRASUBSTITUTED PTERIDINE COMPOUNDS AND METHODS OF SYNTHESIS AND USE THEREOF” (Janus Biotherapeutics, Inc., priority 2014, published 2017).
Like-named read-outs stand apart in the source and are kept apart here.

Legend:
Hep-G2 cells = experiment: Cell viability, Hep-G2 cells (CEREP); assay type: cell-based
Experimental: Preliminary screening measures were conducted by CEREP. All values fall within acceptable limits (Table 5). Solubility assays where performed by CEREP, Seattle, Wash., according to Lipinski, C. A. et al., 1997, Adv. Drug Del. Rev., 46:3-26. Protein binding assays where performed by CEREP, Seattle, Wash., according to Banker, M. J. et al., 2003, J. Pharm. Sci., 92:967-974. Permeability assays where performed by CEREP, Seattle, Wash. according to Hildalgo, I. J., 1998, Gastroenterology, 96:736-749. Metabolic stability assays where performed by CEREP, Seattle, Wash., according to Obach, R. S. et al., 1997, J. Pharmacol. Exp. Ther., 283:46-58. P-glycoprotein inhibition assays where performed by CEREP, Seattle, Wash., according to Polli, J. W. et al., 2001, J. Pharm. Exp. Ther., 299:620-628. Cell viability assays where performed by CEREP, Seattle, Wash., according to Mosmann, T., 1983, J. Immunol. Met. 65:55-62. hERG automated patch clamp assays where performed by CEREP, Seattle, Wash., according to Mathes, C., 2006, Expert Opin. Ther. Targets, 10:230-241.

[1] = Toxicokinetics of the 7-day tox study; assay type: in vivo, rats; settings: for increase in AUC0-24 h for a 10-fold increase in dose / increase in Cmax for a 10-fold increase in dose: 10 to 100 mg/kg; for AUC / half-life / Cmax / Tmax / clearance / Vd / bioavailability: rat; for half-life: read-out: T½ (converted); for Vd: read-out: Vdss; for bioavailability: read-out: calculated oral absolute bioavailability
Experimental: A 7-day non-GLP tox study was performed in rats. […] The following parameters and end points were evaluated in this study: clinical signs, body weights, body weight changes, food consumption, clinical pathology parameters (hematology, coagulation, clinical chemistry, and urinalysis), toxicokinetic parameters, gross necropsy findings, organ weights, and histopathologic examinations.
Clinical signs and body weight changes in the TK animals were generally similar to the main toxicology phase animals. Select toxicokinetic parameters from Days 1 and 7 are included below in Table 11.

[2] = all three oral doses, whole blood
[3] = female, whole blood, iv, 5 mg/kg, Day 1, 5 mg/kg I.V., Female
[4] = female, whole blood, po, 10 mg/kg, Day 1, 10 mg/kg oral, Female
[5] = female, whole blood, po, 10 mg/kg, Day 7, 10 mg/kg oral, Female
[6] = female, whole blood, po, 30 mg/kg, Day 1, 30 mg/kg oral, Female
[7] = female, whole blood, po, 30 mg/kg, Day 7, 30 mg/kg oral, Female
[8] = female, whole blood, po, 100 mg/kg, Day 1, 100 mg/kg oral, Female
[9] = female, whole blood, po, 100 mg/kg, Day 7, 100 mg/kg oral, Female
[10] = male, whole blood, iv, 5 mg/kg, Day 1, 5 mg/kg I.V., Male
[11] = male, whole blood, po, 10 mg/kg, Day 1, 10 mg/kg oral, Male
[12] = male, whole blood, po, 10 mg/kg, Day 7, 10 mg/kg oral, Male
[13] = male, whole blood, po, 30 mg/kg, Day 1, 30 mg/kg oral, Male
[14] = male, whole blood, po, 30 mg/kg, Day 7, 30 mg/kg oral, Male
[15] = male, whole blood, po, 100 mg/kg, Day 1, 100 mg/kg oral, Male
[16] = male, whole blood, po, 100 mg/kg, Day 7, 100 mg/kg oral, Male
[17] = whole blood, iv, Day 1, 5 mg/kg I.V., Female
[18] = whole blood, iv, Day 1, 5 mg/kg I.V., Male

SMILES: CN1CCN(c2nc(NCCN3CCOCC3)c3nc(Cl)c(NCCN4CCOCC4)nc3n2)CC1 [JB6121, 6-chloro-2-(4-methylpiperazin-1-yl)-N^4,N^7-bis(2-morpholinoethyl)pteridine-4,7-diamine]
- Cell Viability, Hep-G2 cells, % inhibition at 100 μM (Hep-G2 cells): 8.5%
- 7-day accumulation ([1]; 7 day toxicokinetics versus 24 h PK whole blood exposures): approximately 2 fold
- F (0-x) ([1]; Day 1, 10 mg/kg oral, Female): 8.10%
- F (0-x) ([1]; Day 1, 10 mg/kg oral, Male): 13.3%
- F (0-x) ([1]; Day 1, 30 mg/kg oral, Female): 37.2%
- F (0-x) ([1]; Day 1, 30 mg/kg oral, Male): 28.0%
- F (0-x) ([1]; Day 1, 100 mg/kg oral, Female): 91.0%
- F (0-x) ([1]; Day 1, 100 mg/kg oral, Male): 78.5%
- increase in AUC0-24 h for a 10-fold increase in dose ([1]; Day 1, female): 113 fold
- increase in Cmax for a 10-fold increase in dose ([1]; Day 1, female): 43 fold
- increase in AUC0-24 h for a 10-fold increase in dose ([1]; Day 1, male): 59 fold
- increase in Cmax for a 10-fold increase in dose ([1]; Day 1, male): 32 fold
- increase in AUC0-24 h for a 10-fold increase in dose ([1]; Day 7, female): 38 fold
- increase in Cmax for a 10-fold increase in dose ([1]; Day 7, female): 20 fold
- increase in AUC0-24 h for a 10-fold increase in dose ([1]; Day 7, male): 48 fold
- increase in Cmax for a 10-fold increase in dose ([1]; Day 7, male): 24 fold
- average D7/D1 AUC0-24 h ratio [1, 2]: 2.79
- average D7/D1 Cmax ratio [1, 2]: 1.71
- AUC [1, 3]: 2210 ng·h/mL
- half-life [1, 3]: 10.8 h
- AUC [1, 4]: 357 ng·h/mL
- Cmax [1, 4]: 92 ng/mL
- Tmax [1, 4]: 3 h
- half-life [1, 4]: 5.43 h
- AUC [1, 5]: 2120 ng·h/mL
- Cmax [1, 5]: 260 ng/mL
- Tmax [1, 5]: 3 h
- half-life [1, 5]: 18.2 h
- AUC [1, 6]: 4920 ng·h/mL
- Cmax [1, 6]: 643 ng/mL
- Tmax [1, 6]: 3 h
- half-life [1, 6]: 8.8 h
- AUC [1, 7]: 8890 ng·h/mL
- Cmax [1, 7]: 639 ng/mL
- Tmax [1, 7]: 6 h
- half-life [1, 7]: 14.3 h
- AUC [1, 8]: 40300 ng·h/mL
- Cmax [1, 8]: 3980 ng/mL
- Tmax [1, 8]: 3 h
- half-life [1, 8]: 9.39 h
- AUC [1, 9]: 80200 ng·h/mL
- Cmax [1, 9]: 5310 ng/mL
- Tmax [1, 9]: 3 h
- half-life [1, 9]: 14.1 h
- AUC [1, 10]: 2790 ng·h/mL
- half-life [1, 10]: 10.2 h
- AUC [1, 11]: 743 ng·h/mL
- Cmax [1, 11]: 122 ng/mL
- Tmax [1, 11]: 3 h
- half-life [1, 11]: 14.1 h
- AUC [1, 12]: 1910 ng·h/mL
- Cmax [1, 12]: 181 ng/mL
- Tmax [1, 12]: 3 h
- half-life [1, 12]: 19.9 h
- AUC [1, 13]: 4700 ng·h/mL
- Cmax [1, 13]: 582 ng/mL
- Tmax [1, 13]: 3 h
- half-life [1, 13]: 9.39 h
- AUC [1, 14]: 11100 ng·h/mL
- Cmax [1, 14]: 805 ng/mL
- Tmax [1, 14]: 6 h
- half-life [1, 14]: 18.4 h
- AUC [1, 15]: 43800 ng·h/mL
- Cmax [1, 15]: 3950 ng/mL
- Tmax [1, 15]: 3 h
- half-life [1, 15]: 11.9 h
- AUC [1, 16]: 91200 ng·h/mL
- Cmax [1, 16]: 6280 ng/mL
- Tmax [1, 16]: 3 h
- half-life [1, 16]: 40.4 h
- slope of Cmax versus dose ([1]; pooled 7-day exposure data, 0 to 30 mg/kg): 28.24 ng/mL/mg/kg
- clearance [1, 17]: 31.5 mL/min/kg
- Vd [1, 17]: 23.1 L/kg
- clearance [1, 18]: 24.7 mL/min/kg
- Vd [1, 18]: 18.1 L/kg
- bioavailability ([1]; whole blood, po, Day 1, 10 mg/kg): 13.3%
- bioavailability ([1]; whole blood, po, Day 1, 30 mg/kg): 28%
- bioavailability ([1]; whole blood, po, Day 1, 100 mg/kg): 78.5%
